Assay results from patent US9212168B2 (priority 2011, dated 2015).

These compounds were tested on HCV genotype 1a replicon (assay: HCV genotype 1a replicon assay (NS3 protease activity readout)). Settings: HCV genotype 1a replicon.
Format: cell-based, hepatitis C virus
Summary of the method: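 EC50 values came from a 4-parameter robust fit of fluorescence (ex 340, em 509 nm) produced by NS3-specific protease in lysates, assayed with 15 μM FRET substrate for 20 min at 37° C, after 48 or 72 hours of compound exposure (0.5% DMSO) of Huh7.5-derived APC89 genotype 1a replicon cells.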

Structure (SMILES)	Genotype 1a
COC(=O)N[C@@H](C(=O)N1C[C@@H](OC)C[C@H]1c1nc(-c2ccc(-c3cc(Cl)c(NC(=O)c4ccc(N5CCN(C(=O)C(C)(C)CO)C[C@H]5C)nc4)cc3C(F)(F)F)cc2)c[nH]1)C1CCCCC1 [Example 19-14]	A (A represents a pEC50 value between 6 and 8 (EC50 between 1 μM and 10 nM))
CNC(=O)N1CCN(c2ccc(C(=O)Nc3cc(OC(F)(F)F)c(-c4ccc(-c5c[nH]c([C@@H]6C[C@H](OC)CN6C(=O)[C@@H](NC(=O)OC)C6CCOCC6)n5)cc4)cc3Cl)cn2)[C@H](C)C1 [Example 28-13]	D (D represents pEC50>10 (EC50<0.1 nM))
COC(=O)N[C@H](C(=O)N1C[C@@H](C)C[C@H]1c1nc(-c2ccc(-c3cc(F)c(NC(=O)c4ccc(N5CCN(C(=O)C6CC6)C[C@H]5C)nc4)cc3C(F)(F)F)cc2)c[nH]1)C(C)C [Example 1-52]	C (C represents pEC50 between and 9 and about 10, (EC50 between 1 nM and 0.1 nM))
COC(=O)N[C@H](C(=O)N1C[C@@H](C)C[C@H]1c1nc(-c2ccc(-c3ccc(C(=O)Nc4ccc(N5C[C@H](C)N(C(=O)[C@@H](C)NC(=O)C6CC6)C[C@H]5C)nc4)cc3OC(F)(F)F)cc2)c[nH]1)C(C)C [Example 4-40]	D (D represents pEC50>10 (EC50<0.1 nM))
COC(=O)NC(C(=O)N1C(C)CCC1c1nc(-c2ccc(-c3ccc(C(=O)Nc4ccc(N5CCN(C(=O)C6CC6(C)C)CC5C)nc4)cc3OC(F)(F)F)cc2)c[nH]1)C(C)C (centres unmarked) [Example 18-3]	C (C represents pEC50 between and 9 and about 10, (EC50 between 1 nM and 0.1 nM))
COC(=O)N[C@H](C(=O)N1C[C@@H](O)C[C@H]1c1nc(-c2ccc(-c3ccc(NC(=O)c4ccc(N5CCN(C(=O)c6c[nH]cn6)C[C@H]5C)nc4)cc3)cc2)c[nH]1)C(C)C [Example 26-2]	B (B represents pEC50 between 8 and 9 (EC50 between 1 and 10 nM))
COC(=O)N[C@H](C(=O)N1C[C@@H](C)C[C@H]1c1nc(-c2ccc(-c3cc(Cl)c(NC(=O)c4ccc(N5CCN(C(=O)[C@H]6CCCN6C(=O)C6CC6)C[C@H]5C)nc4)cc3OC(F)(F)F)cc2)c[nH]1)C(C)C [Example 1-51]	D (D represents pEC50>10 (EC50<0.1 nM))
COC(=O)N[C@H](C(=O)N1C[C@@H](C)C[C@H]1c1nc(-c2ccc(-c3cc(F)c(NC(=O)c4ccc(N5CCN(C(=O)C6CC67CC7)C[C@H]5C)nc4)cc3OC(F)(F)F)cc2)c[nH]1)C(C)C (some centres unmarked) [Example 1-88]	D (D represents pEC50>10 (EC50<0.1 nM))
COC(=O)N[C@H](C(=O)N1C[C@@H](N(C)C)C[C@H]1c1nc(-c2ccc(-c3cc(Cl)c(NC(=O)c4ccc(N5CCN(C(=O)[C@H]6CC6(C)C)C[C@H]5C)nc4)cc3OC(F)(F)F)cc2)c[nH]1)C(C)C [Example 2-6]	D (D represents pEC50>10 (EC50<0.1 nM))
COC(=O)N[C@H](C(=O)N1[C@@H](C)CC[C@H]1c1nc(-c2ccc(-c3ccc(C(=O)Nc4ccc(N5CCN(C(=O)C(C)(C)C)C[C@H]5C)nc4)cc3OC(F)(F)F)cc2)c[nH]1)C(C)C [Example 18-4]	C (C represents pEC50 between and 9 and about 10, (EC50 between 1 nM and 0.1 nM))
COC(=O)N[C@H](C(=O)N1C[C@@H](C)C[C@H]1c1nc(-c2ccc(-c3cc(Cl)c(NC(=O)c4ccc(N5CCN(C(=O)[C@H]6CCCN6C(=O)OC)C[C@H]5C)nc4)cc3OC(F)(F)F)cc2)c[nH]1)C(C)C [Example 1-37]	D (D represents pEC50>10 (EC50<0.1 nM))
COC(=O)N[C@H](C(=O)N1C[C@@H](C)C[C@H]1c1nc(-c2ccc(-c3ccc(C(=O)Nc4ccc(N5CCN(C(=O)C6CC6)C[C@H]5C)nc4)cc3OC(F)(F)F)cc2)c[nH]1)C(C)C [Example 4-35]	C (C represents pEC50 between and 9 and about 10, (EC50 between 1 nM and 0.1 nM))
COC(=O)N[C@H](C(=O)N1C[C@@H](C)C[C@H]1c1nc(-c2ccc(-c3ccc(C(=O)Nc4ccc(N5CCN(C(=O)C6CC6)C[C@H]5C)nc4)cc3OC(F)(F)F)cc2)c(Cl)[nH]1)C(C)C [Example 4-31]	C (C represents pEC50 between and 9 and about 10, (EC50 between 1 nM and 0.1 nM))
COC(=O)N[C@H](C(=O)N1C[C@@H](N(C)C)C[C@H]1c1nc(-c2ccc(-c3ccc(NC(=O)c4ccc(N5CCN(C(=O)[C@H]6CC6(C)C)C[C@H]5C)nc4)cc3C)cc2)c[nH]1)C(C)C [Example 2-4]	D (D represents pEC50>10 (EC50<0.1 nM))
CNC(=O)N1CCC[C@@]1(C)C(=O)N1CCN(c2ccc(C(=O)Nc3cc(OC(F)(F)F)c(-c4ccc(-c5c[nH]c([C@@H]6C[C@H](C)CN6C(=O)[C@@H](NC(=O)OC)C(C)C)n5)cc4)cc3Cl)cn2)[C@H](C)C1 [Example 1-22]	D (D represents pEC50>10 (EC50<0.1 nM))
COC(=O)NC(C(=O)N1C[C@@H](C)C[C@H]1c1nc(-c2ccc(-c3cc(Cl)c(NC(=O)c4ccc(N5CCN(C(=O)C(C)(C)CO)C[C@H]5C)nc4)cc3C(F)(F)F)cc2)c[nH]1)C1CCS(=O)(=O)CC1 (single isomer, unassigned) [Example 19-1]	D (D represents pEC50>10 (EC50<0.1 nM))
CNC(=O)N1C[C@@H](C)N(c2ccc(C(=O)Nc3cc(OC(F)(F)F)c(-c4ccc(-c5c[nH]c([C@@H]6C[C@H](C)CN6C(=O)[C@H](NC(=O)OC)C(C)(C)C)n5)cc4)cc3Cl)cn2)C[C@@H]1C [Example 7-2]	A (A represents a pEC50 value between 6 and 8 (EC50 between 1 μM and 10 nM))
COC(=O)N[C@H](C(=O)N1[C@@H](C)CC[C@H]1c1nc(-c2ccc(-c3ccc(C(=O)Nc4ccc(N5CCN(C(=O)C(C)(C)C)C[C@H]5C)nc4)cc3OC(F)(F)F)cc2)c(Cl)[nH]1)C(C)C [Example 18-2]	C (C represents pEC50 between and 9 and about 10, (EC50 between 1 nM and 0.1 nM))
COC(=O)NC(C(=O)N1CC(OC)CC1c1nc(-c2ccc(-c3cc(F)c(NC(=O)c4ccc(N5CCN(C(=O)C(C)(C)C)CC5C)nc4)cc3OC(F)(F)F)cc2)c[nH]1)C(C)(C)O (centres unmarked) [Example 16-6]	D (D represents pEC50>10 (EC50<0.1 nM))
CC[C@@H](C)C(=O)N1CCN(c2ccc(C(=O)Nc3cc(OC(F)(F)F)c(-c4ccc(-c5c[nH]c([C@@H]6C[C@H](C)CN6C(=O)[C@@H](NC(=O)OC)C(C)C)n5)cc4)cc3Cl)cn2)[C@H](C)C1 [Example 1-86]	D (D represents pEC50>10 (EC50<0.1 nM))
COC(=O)NC(C(=O)N1CC(F)CC1c1nc(-c2ccc(-c3cc(Cl)c(NC(=O)c4ccc(N5CCN(C(=O)C(C)(C)CO)CC5C)nc4)cc3OC(F)(F)F)cc2)c[nH]1)C1CCOCC1 (centres unmarked) [Example 29-4]	D (D represents pEC50>10 (EC50<0.1 nM))

Same assay, conditions: Hepatitis C virus, read-out: Genotype 1a, HCV genotype 1a replicon

Structure (SMILES)	EC50 [nM]
COC(=O)N[C@H](C(=O)N1[C@@H]2C[C@@H]2C[C@H]1c1nc(-c2ccc(-c3ccc(C(=O)Nc4ccc(N5CCN(C(=O)C(C)(C)C)C[C@H]5C)nc4)cc3OC(F)(F)F)cc2)c(Cl)[nH]1)C(C)C [Example 9-1]	0.1 to 1
COC(=O)N[C@H](C(=O)N1C[C@@H](N)C[C@H]1c1nc(-c2ccc(-c3ccc(C(=O)Nc4ccc(N5CCN(C(=O)C6CC6(C)C)C[C@H]5C)nc4)cc3)cc2)c[nH]1)C(C)C (some centres unmarked) [Example 6-4]	10 to 1000
COC(=O)N[C@H](C(=O)N1C[C@@H](C)C[C@H]1c1nc(-c2ccc(-c3cc(Cl)c(NC(=O)c4ccc(N5CCN(C(=O)C(C)(C)OC)C[C@H]5C)nc4)cc3OC(F)(F)F)cc2)c[nH]1)C(C)C [Example 12-43]	< 0.1
COC(=O)NC(C(=O)N1C[C@@H](C)C[C@H]1c1nc(-c2ccc(-c3cc(Cl)c(NC(=O)c4ccc(N5CCN(C(=O)C(C)(C)C)C[C@H]5C)nc4)cc3OC(F)(F)F)cc2)c[nH]1)C1CCS(=O)(=O)CC1 (some centres unmarked) [Example 13-36]	1 to 10
COC(=O)N[C@H](C(=O)N1[C@H](c2nc(-c3ccc(-c4ccc(C(=O)Nc5ccc(N6CCN(C(=O)[C@]7(C)CCCN7C(=O)[C@@H](NC(=O)OC)C(C)C)C[C@H]6C)nc5)cc4OC(F)(F)F)cc3)c[nH]2)C[C@@H]2CCCC[C@@H]21)C(C)C [Example 6-14]	< 0.1
COC(=O)N[C@@H](C(=O)N1C[C@@H](C)C[C@H]1c1nc(-c2ccc(-c3cc(Cl)c(NC(=O)c4ccc(N5CCN(C(=O)C(C)(C)C)C[C@H]5C)nc4)cc3OC(F)(F)F)cc2)c[nH]1)C1CCCCC1 [Example 13-40]	10 to 1000
COC(=O)N[C@@H](CSC)C(=O)N1C[C@@H](C)C[C@H]1c1nc(-c2ccc(-c3cc(Cl)c(NC(=O)c4ccc(N5CCN(C(=O)C(C)(C)C)C[C@H]5C)nc4)cc3OC(F)(F)F)cc2)c[nH]1 [Example 13-7]	< 0.1
COC(=O)N[C@H](C(=O)N1C[C@H](N2Cc3ccccc3C2)C[C@H]1c1nc(-c2ccc(-c3cc(Cl)c(NC(=O)c4ccc(N5CCN(C(=O)C(C)(C)C)C[C@H]5C)nc4)cc3OC(F)(F)F)cc2)c[nH]1)C(C)C [Example 5-10]	10 to 1000
COC(=O)N[C@H](C(=O)N1[C@H](c2nc(-c3ccc(-c4ccc(C(=O)Nc5ccc(N6CCN(C(=O)[C@]7(C)C[C@@H](O)CN7C(=O)OC(C)(C)C)C[C@H]6C)nc5)cc4OC(F)(F)F)cc3)c[nH]2)C[C@@H]2CCCC[C@@H]21)C(C)C [Example 6-16]	1 to 10
COC(=O)N[C@H](C(=O)N1C[C@@H](C)C[C@H]1c1nc(-c2ccc(-c3cc(Cl)c(NC(=O)c4ccc(N5CCN(C(=O)C(C)(C)C)C(CO)C5)nc4)cc3OC(F)(F)F)cc2)c[nH]1)C(C)C (some centres unmarked) [Example 14-1]	0.1 to 1
COC(=O)N[C@@H](CCCCN)C(=O)N1C[C@@H](C)C[C@H]1c1nc(-c2ccc(-c3cc(Cl)c(NC(=O)c4ccc(N5CCN(C(=O)C(C)(C)C)C[C@H]5C)nc4)cc3OC(F)(F)F)cc2)c[nH]1 [Example 13-33]	< 0.1
COC[C@H]1C[C@@H](c2nc(-c3ccc(-c4cc(Cl)c(NC(=O)c5ccc(N6CCN(C(=O)C(C)(C)C)C[C@H]6C)nc5)cc4OC(F)(F)F)cc3)c[nH]2)N(C(=O)[C@@H](NC(=O)OC)C2CCOCC2)C1 [Example 5-15]	< 0.1
CCC(CO)(CO)C(=O)N1CCN(c2ccc(C(=O)Nc3cc(OC(F)(F)F)c(-c4ccc(-c5c[nH]c([C@@H]6C[C@H](C)CN6C(=O)[C@@H](NC(=O)OC)C(C)C)n5)cc4)cc3Cl)cn2)[C@H](C)C1 [Example 12-4]	< 0.1
COC(=O)N[C@H](C(=O)N1C[C@@H](C)C[C@H]1c1nc(-c2ccc(-c3cc(Cl)c(NC(=O)c4ccc(N5CCN(C(=O)C(C)N(C)C)C[C@H]5C)nc4)cc3OC(F)(F)F)cc2)c[nH]1)C(C)C (some centres unmarked) [Example 12-23]	< 0.1
